# Data published in patent publication US20250163104A1, “MACROCYCLIC IMMUNOMODULATORS” (priority 2021, published 2025).
# Where a SMILES comes first, the peptide text is derived from it. Bridges are numbered along the chain shown (N, C = ends). [ ]: non-standard residue; d: D form. The star is where a group is joined. Bip = N[C@@H](Cc1ccc(-c2ccccc2)cc1)C(=O)O; Phe(4-CN) = N#Cc1ccc(C[C@H](N)C(=O)O)cc1; 4Pal = N[C@@H](Cc1ccncc1)C(=O)O; 2Thi = N[C@@H](Cc1cccs1)C(=O)O; Cha = N[C@@H](CC1CCCCC1)C(=O)O; Carboxymethyl = O=C(O)C*; Orn = NCCC[C@H](N)C(=O)O; Dab = NCC[C@H](N)C(=O)O; Dap = NC[C@H](N)C(=O)O
# Molecular target: T1, human PD-1 / PD-L1-Ig binding on Jurkat cell line over-expressing human PD-1 (Jurkat-PD-1) (Homo sapiens, UniProt Q15116)
# T1 construct: expressed in transfected cells; host or cells: Jurkat
# T1 sequence (Q15116 25-288): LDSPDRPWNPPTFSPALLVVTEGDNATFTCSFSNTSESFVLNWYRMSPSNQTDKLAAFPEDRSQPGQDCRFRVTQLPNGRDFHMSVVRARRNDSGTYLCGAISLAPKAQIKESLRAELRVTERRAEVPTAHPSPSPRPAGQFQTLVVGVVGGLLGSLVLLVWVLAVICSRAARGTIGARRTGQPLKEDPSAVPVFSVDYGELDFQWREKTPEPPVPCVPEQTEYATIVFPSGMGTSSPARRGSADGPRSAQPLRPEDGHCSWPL
# Assay: Jurkat-PD-1 Cell Binding High-Content Screening Assay (CBA)
# Assay type: cell-based
# Conditions: Jurkat-PD-1 cells, PE-labeled PD-L1-Ig 20 nM final; read-out: Jurkat HPD1_PDL1 IC50
# Procedure, shortened: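 PE-PD-L1-Ig 20 nM final; cells in DMEM/10% FCS; cpd pre-incubation 2 h, 37° C; ligand 1 h; PFA fix + Hoechst 33342; high-content imaging read-out.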
row,SMILES,IC50
1,CC(C)C[C@H]1NC(=O)[C@H](CCCN)NC(=O)[C@H](CCC(=O)O)NC(=O)[C@H](Cc2ccc(-c3ccccc3)cc2)NC(=O)[C@H](C(C)C)NC(=O)[C@H](Cc2c[nH]c3ccccc23)NC(=O)[C@H](CC(=O)O)NC(=O)[C@H](Cc2ccc(N)cc2)NC(=O)[C@H](Cc2ccc(OCC(=O)O)cc2)NC(=O)CSC[C@@H](C(=O)N[C@@H](C)C(N)=O)NC(=O)[C@H]([C@@H](C)O)NC(=O)[C@H](C(C)C)NC(=O)[C@H](CC2CCCCC2)NC(=O)[C@H](CCN)NC1=O [Compound 2183],19.4 nM
2,CC(C)C[C@H]1NC(=O)[C@H](CCCN)NC(=O)[C@H](CCC(=O)O)NC(=O)[C@H](Cc2ccc(-c3ccccc3)cc2)NC(=O)[C@H](C(C)C)NC(=O)[C@H](Cc2c[nH]c3ccccc23)NC(=O)[C@H](CC(=O)O)NC(=O)[C@H](Cc2ccc(C#N)cc2)NC(=O)[C@H](CC(N)=O)NC(=O)CSC[C@@H](C(=O)N[C@@H](C)C(N)=O)NC(=O)[C@H]([C@@H](C)O)NC(=O)[C@H](C(C)C)NC(=O)[C@H](CC2CCCCC2)NC(=O)[C@H](CCN)NC1=O [Compound 2185] ({CH2CO}-N[Phe(4-CN)]DWV[Bip]E[Orn][dL][Dab][Cha]VTCA-NH2; thioether N-14),28.1 nM
3,CC(C)C[C@H]1NC(=O)[C@H](CCCN)NC(=O)[C@H](CCC(=O)O)NC(=O)[C@H](Cc2ccc(-c3ccccc3)cc2)NC(=O)[C@H](C(C)C)NC(=O)[C@H](Cc2c[nH]c3ccccc23)NC(=O)[C@H](CC(=O)O)NC(=O)[C@H](Cc2ccc(C#N)cc2)NC(=O)[C@H](CN)NC(=O)CSC[C@@H](C(=O)N[C@@H](C)C(N)=O)NC(=O)[C@H]([C@@H](C)O)NC(=O)[C@H](C(C)C)NC(=O)[C@H](CC2CCCCC2)NC(=O)[C@H](CCN)NC1=O [Compound 2187],13.2 nM
4,CC(C)C[C@H]1NC(=O)[C@H](CCCN)NC(=O)[C@H](CCC(=O)O)NC(=O)[C@H](Cc2ccc(-c3ccccc3)cc2)NC(=O)[C@H](C(C)C)NC(=O)[C@H](Cc2c[nH]c3ccccc23)NC(=O)[C@H](CC(=O)O)NC(=O)[C@H](Cc2ccc(C#N)cc2)NC(=O)[C@H](Cc2ccc(OCC(=O)O)cc2)NC(=O)CSC[C@@H](C(=O)N[C@@H](C)C(N)=O)NC(=O)[C@H]([C@@H](C)O)NC(=O)[C@H](C(C)C)NC(=O)[C@H](CC2CCCCC2)NC(=O)[C@H](CCN)NC1=O [Compound 2188],24.1 nM
5,CC(C)C[C@H]1NC(=O)[C@H](CCCN)NC(=O)[C@H](CCC(=O)O)NC(=O)[C@H](Cc2ccc(-c3ccccc3)cc2)NC(=O)[C@H](C(C)C)NC(=O)[C@H](Cc2c[nH]c3ccccc23)NC(=O)[C@H](CC(=O)O)NC(=O)[C@H](Cc2cccs2)NC(=O)[C@H](CC(N)=O)NC(=O)CSC[C@@H](C(=O)N[C@@H](C)C(N)=O)NC(=O)[C@H]([C@@H](C)O)NC(=O)[C@H](C(C)C)NC(=O)[C@H](CC2CCCCC2)NC(=O)[C@H](CCN)NC1=O [Compound 2190] ({CH2CO}-N[2Thi]DWV[Bip]E[Orn][dL][Dab][Cha]VTCA-NH2; thioether N-14),15.3 nM
6,CC(C)C[C@H]1NC(=O)[C@H](CCCN)NC(=O)[C@H](CCC(=O)O)NC(=O)[C@H](Cc2ccc(-c3ccccc3)cc2)NC(=O)[C@H](C(C)C)NC(=O)[C@H](Cc2c[nH]c3ccccc23)NC(=O)[C@H](CC(=O)O)NC(=O)[C@H](Cc2cccs2)NC(=O)[C@H](Cc2ccccc2)NC(=O)CSC[C@@H](C(=O)N[C@@H](C)C(N)=O)NC(=O)[C@H]([C@@H](C)O)NC(=O)[C@H](C(C)C)NC(=O)[C@H](CC2CCCCC2)NC(=O)[C@H](CCN)NC1=O [Compound 2191] ({CH2CO}-F[2Thi]DWV[Bip]E[Orn][dL][Dab][Cha]VTCA-NH2; thioether N-14),59.5 nM
7,CC(C)C[C@H]1NC(=O)[C@H](CCCN)NC(=O)[C@H](CCC(=O)O)NC(=O)[C@H](Cc2ccc(-c3ccccc3)cc2)NC(=O)[C@H](C(C)C)NC(=O)[C@H](Cc2c[nH]c3ccccc23)NC(=O)[C@H](CC(=O)O)NC(=O)[C@H](Cc2cccs2)NC(=O)[C@H](CN)NC(=O)CSC[C@@H](C(=O)N[C@@H](C)C(N)=O)NC(=O)[C@H]([C@@H](C)O)NC(=O)[C@H](C(C)C)NC(=O)[C@H](CC2CCCCC2)NC(=O)[C@H](CCN)NC1=O [Compound 2192] ({CH2CO}-[Dap][2Thi]DWV[Bip]E[Orn][dL][Dab][Cha]VTCA-NH2; thioether N-14),18.4 nM
8,CC(C)C[C@H]1NC(=O)[C@H](CCCN)NC(=O)[C@H](CCC(=O)O)NC(=O)[C@H](Cc2ccc(-c3ccccc3)cc2)NC(=O)[C@H](C(C)C)NC(=O)[C@H](Cc2c[nH]c3ccccc23)NC(=O)[C@H](CC(=O)O)NC(=O)[C@H](Cc2cccs2)NC(=O)[C@H](Cc2ccc(OCC(=O)O)cc2)NC(=O)CSC[C@@H](C(=O)N[C@@H](C)C(N)=O)NC(=O)[C@H]([C@@H](C)O)NC(=O)[C@H](C(C)C)NC(=O)[C@H](CC2CCCCC2)NC(=O)[C@H](CCN)NC1=O [Compound 2193],23.4 nM
9,CC(C)C[C@H]1NC(=O)[C@H](CCCN)NC(=O)[C@H](CCC(=O)O)NC(=O)[C@H](Cc2ccc(-c3ccccc3)cc2)NC(=O)[C@H](C(C)C)NC(=O)[C@H](Cc2c[nH]c3ccccc23)NC(=O)[C@H](CC(=O)O)NC(=O)[C@H](Cc2cccs2)NC(=O)[C@H](Cc2ccncc2)NC(=O)CSC[C@@H](C(=O)N[C@@H](C)C(N)=O)NC(=O)[C@H]([C@@H](C)O)NC(=O)[C@H](C(C)C)NC(=O)[C@H](CC2CCCCC2)NC(=O)[C@H](CCN)NC1=O [Compound 2194] ({CH2CO}-[4Pal][2Thi]DWV[Bip]E[Orn][dL][Dab][Cha]VTCA-NH2; thioether N-14),16.5 nM
10,CC(C)C[C@H]1NC(=O)[C@H](CCCN)NC(=O)[C@H](CCC(=O)O)NC(=O)[C@H](Cc2ccc(-c3ccccc3)cc2)NC(=O)[C@H](C(C)C)NC(=O)[C@H](Cc2c[nH]c3ccccc23)NC(=O)[C@H](CC(=O)O)NC(=O)[C@H](Cc2ccncc2)NC(=O)[C@H](CC(N)=O)NC(=O)CSC[C@@H](C(=O)N[C@@H](C)C(N)=O)NC(=O)[C@H]([C@@H](C)O)NC(=O)[C@H](C(C)C)NC(=O)[C@H](CC2CCCCC2)NC(=O)[C@H](CCN)NC1=O [Compound 2195] ({CH2CO}-N[4Pal]DWV[Bip]E[Orn][dL][Dab][Cha]VTCA-NH2; thioether N-14),22.8 nM
11,CC(C)C[C@H]1NC(=O)[C@H](CCCN)NC(=O)[C@H](CCC(=O)O)NC(=O)[C@H](Cc2ccc(-c3ccccc3)cc2)NC(=O)[C@H](C(C)C)NC(=O)[C@H](Cc2c[nH]c3ccccc23)NC(=O)[C@H](CCC(=O)O)NC(=O)[C@H](Cc2ccc(OCC(=O)O)cc2)NC(=O)[C@H](CN)NC(=O)CSC[C@@H](C(=O)N[C@@H](C)C(N)=O)NC(=O)[C@H]([C@@H](C)O)NC(=O)[C@H](C(C)C)NC(=O)[C@H](CC2CCCCC2)NC(=O)[C@H](CCN)NC1=O [Compound 2198] ({CH2CO}-[Dap]Y(Carboxymethyl)EWV[Bip]E[Orn][dL][Dab][Cha]VTCA-NH2; thioether N-14),803 nM

# Next, values leading:
row,IC50,SMILES
1,28.5 nM,CC(C)C[C@H]1NC(=O)[C@H](CCCN)NC(=O)[C@H](CCC(=O)O)NC(=O)[C@H](Cc2ccc(-c3ccccc3)cc2)NC(=O)[C@H](C(C)C)NC(=O)[C@H](Cc2c[nH]c3ccccc23)NC(=O)[C@H](CC(=O)O)NC(=O)[C@H](Cc2ccc(N)cc2)NC(=O)[C@H](Cc2ccncc2)NC(=O)CSC[C@@H](C(=O)N[C@@H](C)C(N)=O)NC(=O)[C@H]([C@@H](C)O)NC(=O)[C@H](C(C)C)NC(=O)[C@H](CC2CCCCC2)NC(=O)[C@H](CCN)NC1=O [Compound 2184]
2,45.2 nM,CC(C)C[C@H]1NC(=O)[C@H](CCCN)NC(=O)[C@H](CCC(=O)O)NC(=O)[C@H](Cc2ccc(-c3ccccc3)cc2)NC(=O)[C@H](C(C)C)NC(=O)[C@H](Cc2c[nH]c3ccccc23)NC(=O)[C@H](CC(=O)O)NC(=O)[C@H](Cc2ccc(C#N)cc2)NC(=O)[C@H](Cc2ccccc2)NC(=O)CSC[C@@H](C(=O)N[C@@H](C)C(N)=O)NC(=O)[C@H]([C@@H](C)O)NC(=O)[C@H](C(C)C)NC(=O)[C@H](CC2CCCCC2)NC(=O)[C@H](CCN)NC1=O [Compound 2186] ({CH2CO}-F[Phe(4-CN)]DWV[Bip]E[Orn][dL][Dab][Cha]VTCA-NH2; thioether N-14)
3,32.2 nM,CC(C)C[C@H]1NC(=O)[C@H](CCCN)NC(=O)[C@H](CCC(=O)O)NC(=O)[C@H](Cc2ccc(-c3ccccc3)cc2)NC(=O)[C@H](C(C)C)NC(=O)[C@H](Cc2c[nH]c3ccccc23)NC(=O)[C@H](CC(=O)O)NC(=O)[C@H](Cc2ccc(C#N)cc2)NC(=O)[C@H](Cc2ccncc2)NC(=O)CSC[C@@H](C(=O)N[C@@H](C)C(N)=O)NC(=O)[C@H]([C@@H](C)O)NC(=O)[C@H](C(C)C)NC(=O)[C@H](CC2CCCCC2)NC(=O)[C@H](CCN)NC1=O [Compound 2189]
4,11.6 nM,CC(C)C[C@H]1NC(=O)[C@H](CCCN)NC(=O)[C@H](CCC(=O)O)NC(=O)[C@H](Cc2ccc(-c3ccccc3)cc2)NC(=O)[C@H](C(C)C)NC(=O)[C@H](Cc2c[nH]c3ccccc23)NC(=O)[C@H](CC(=O)O)NC(=O)[C@H](Cc2ccncc2)NC(=O)[C@H](Cc2ccccc2)NC(=O)CSC[C@@H](C(=O)N[C@@H](C)C(N)=O)NC(=O)[C@H]([C@@H](C)O)NC(=O)[C@H](C(C)C)NC(=O)[C@H](CC2CCCCC2)NC(=O)[C@H](CCN)NC1=O [Compound 2196] ({CH2CO}-F[4Pal]DWV[Bip]E[Orn][dL][Dab][Cha]VTCA-NH2; thioether N-14)
5,8.2 nM,CC(C)C[C@H]1NC(=O)[C@H](CCCN)NC(=O)[C@H](CCC(=O)O)NC(=O)[C@H](Cc2ccc(-c3ccccc3)cc2)NC(=O)[C@H](C(C)C)NC(=O)[C@H](Cc2c[nH]c3ccccc23)NC(=O)[C@H](CC(=O)O)NC(=O)[C@H](Cc2ccncc2)NC(=O)[C@H](Cc2ccncc2)NC(=O)CSC[C@@H](C(=O)N[C@@H](C)C(N)=O)NC(=O)[C@H]([C@@H](C)O)NC(=O)[C@H](C(C)C)NC(=O)[C@H](CC2CCCCC2)NC(=O)[C@H](CCN)NC1=O [Compound 2197] ({CH2CO}-[4Pal][4Pal]DWV[Bip]E[Orn][dL][Dab][Cha]VTCA-NH2; thioether N-14)
